Results: ChEMBL document CHEMBL1154952, “N1-Alkyl pyrimidinediones as non-nucleoside inhibitors of HIV-1 reverse transcriptase” (Bioorg Med Chem Lett, 2010)
Values after ≈ are worked out from the molar mass of the structure shown.

What was measured:
[1] = test system: Human immunodeficiency virus 1; assay: Antiviral activity against HIV1 harboring reverse transcriptase Y181C mutant infected in human MT2 cells; assay type: functional, organism-based; conditions: Human immunodeficiency virus 1, MT2
[2] = test system: Human immunodeficiency virus 1; assay: Antiviral activity against NNRTI-resistant HIV1 harboring reverse transcriptase K103N mutant infected in human MT2 cells; assay type: functional, organism-based; conditions: Human immunodeficiency virus 1, MT2
[3] = test system: Human immunodeficiency virus 1; assay: Antiviral activity against wild type HIV1 infected in human MT2 cells; assay type: functional, organism-based; conditions: Human immunodeficiency virus 1, MT2
[4] = target: Albumin (Homo sapiens, UniProt P02768); assay: Binding affinity to human serum albumin; assay type: ADME; conditions: read-out: PB (converted)
Sequence of Albumin (P02768 whole entry): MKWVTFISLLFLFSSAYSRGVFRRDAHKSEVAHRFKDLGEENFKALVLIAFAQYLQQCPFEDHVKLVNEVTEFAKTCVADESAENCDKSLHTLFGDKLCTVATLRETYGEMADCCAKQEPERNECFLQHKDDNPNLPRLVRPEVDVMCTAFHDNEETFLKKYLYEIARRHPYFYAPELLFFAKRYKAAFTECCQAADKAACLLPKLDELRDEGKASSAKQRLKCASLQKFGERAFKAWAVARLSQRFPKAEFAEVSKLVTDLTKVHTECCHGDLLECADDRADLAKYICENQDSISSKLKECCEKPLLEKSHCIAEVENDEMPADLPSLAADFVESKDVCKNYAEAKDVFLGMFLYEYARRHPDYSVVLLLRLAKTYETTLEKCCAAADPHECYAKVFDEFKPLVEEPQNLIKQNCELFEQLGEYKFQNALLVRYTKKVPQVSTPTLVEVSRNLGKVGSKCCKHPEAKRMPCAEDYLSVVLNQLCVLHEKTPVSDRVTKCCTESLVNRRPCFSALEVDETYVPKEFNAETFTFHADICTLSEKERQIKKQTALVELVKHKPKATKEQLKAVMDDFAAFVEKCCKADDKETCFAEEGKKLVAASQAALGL

[5] = Volume of distribution at steady state in Beagle dog at 0.5 mg/kg, iv or. 5 mg/kg, po; assay type: ADME, organism-based, Canis lupus familiaris; conditions: in vivo, read-out: Vdss
[6] = Half life in Beagle dog at 0.5 mg/kg, iv or. 5 mg/kg, po; assay type: ADME, organism-based, Canis lupus familiaris; conditions: in vivo
[7] = AUC ((0 to infinity)) in Beagle dog at 5 mg/kg, po dosed as suspension; assay type: ADME, organism-based, Canis lupus familiaris; design: time infinity, dose 5 mg/kg, route oral; conditions: plasma
[8] = Oral bioavailability in Beagle dog at 5 mg/kg, po dosed as suspension; assay type: ADME, organism-based, Canis lupus familiaris; conditions: in vivo
[9] = test system: Canis familiaris; assay: Toxicity in Beagle dog assessed as emesis at greater than 5 mg/kg, po dosed as suspension; assay type: organism-based, Canis lupus familiaris; design: dose 5 mg/kg, route oral; conditions: in vivo
[10] = Aqueous solubility in 50 mM phosphate buffer; assay type: physicochemical
[11] = Oral bioavailability in Beagle dog at 2 mg/kg; assay type: ADME, organism-based, Canis lupus familiaris; conditions: in vivo
[12] = Oral bioavailability in Beagle dog at 5 mg/kg, po dosed as Tablet formulation; assay type: ADME, organism-based, Canis lupus familiaris; conditions: in vivo
[13] = AUC ((0 to infinity)) in Beagle dog at 5 mg/kg, po dosed as Tablet formulation; assay type: ADME, organism-based, Canis lupus familiaris; design: time infinity, dose 5 mg/kg, route oral; conditions: plasma
[14] = Oral bioavailability in Beagle dog at 4 mg/kg; assay type: ADME, organism-based, Canis lupus familiaris; conditions: in vivo
[15] = Oral bioavailability in Beagle dog at 0.5 mg/kg; assay type: ADME, organism-based, Canis lupus familiaris; conditions: in vivo
[16] = test system: Human immunodeficiency virus 1; assay: Ratio of EC50 for wild type HIV1 in absence of 50% human serum to EC50 for wild type HIV1 in presence of 50% human serum; assay type: functional
[17] = test system: Human immunodeficiency virus 1; assay: Ratio of EC50 for HIV1 harboring reverse transcriptase Y181C mutant in absence of 50% human serum to EC50 for HIV1 harboring reverse transcriptase Y181C mutant in presence of 50% human serum; assay type: functional
[18] = test system: Human immunodeficiency virus 1; assay: Ratio of EC50 for HIV1 harboring reverse transcriptase K103N mutant in absence of 50% human serum to EC50 for HIV1 harboring reverse transcriptase K103N mutant in presence of 50% human serum; assay type: functional

| SMILES | EC50 [1] [nM] | EC50 [2] [nM] | EC50 [3] [nM] | fraction unbound [4] | Vd [5] [L/kg] | half-life [6] [h] | other results |
| --- | --- | --- | --- | --- | --- | --- | --- |
| CCc1c(C(=O)c2cc(C)cc(C#N)c2)n(CC)c(=O)[nH]c1=O | > 43 | > 43 | 11.7 | 0.149 | 1.53 | 1.42 | – |
| CCn1c(C(=O)c2cc(C)cc(C#N)c2)c(C(C)C)c(=O)n(COP(=O)(O)O)c1=O | – | – | – | – | – | – | AUC(0-inf) [7]: 18.8 µM·h; bioavailability [8]: 75.2%; Activity [9]: Toxic; solubility [10]: 12000 µg/mL (≈ 27600 µM) |
| O=C1Nc2ccc(Cl)cc2[C@@](C#CC2CC2)(C(F)(F)F)O1 [EFAVIRENZ] | – | – | – | 0.001 | – | – | – |
| CCn1c(C(=O)c2cc(C)cc(C#N)c2)c(C(C)(C)C)c(=O)[nH]c1=O | > 50 | 2.7 | 10 | 0.007 | – | – | – |
| CCCn1c(C(=O)c2cc(C)cc(C#N)c2)c(C(C)C)c(=O)[nH]c1=O | > 58 | > 36 | 3.6 | 0.009 | 1.4 | 1.67 | – |
| CCn1c(C(F)(F)c2cc(C)cc(C#N)c2)c(C(C)C)c(=O)[nH]c1=O | 4.3 | 9 | 4.2 | 0.013 | – | – | – |
| CCCCn1c(C(=O)c2cc(C)cc(C#N)c2)c(C(C)C)c(=O)[nH]c1=O | 12 | 10 | 3 | 0.001 | 2.23 | 6.1 | bioavailability [11]: 28% |
| CCn1c(C(F)c2cc(C)cc(C#N)c2)c(C(C)C)c(=O)[nH]c1=O (stereo not drawn) | 8.1 | > 24 | 21 | 0.02 | – | – | – |
| CCn1c(Oc2cc(C)cc(C#N)c2)c(C(C)C)c(=O)[nH]c1=O | 2.6 | > 14 | 35 | 0.04 | – | – | – |
| CCn1c(C(=O)c2cc(C)cc(C#N)c2)c(C(C)C)c(=O)n(COC(C)=O)c1=O | – | – | – | – | – | – | AUC(0-inf) [7]: 14.7 µM·h; bioavailability [8]: 48.9%; solubility [10]: 2.2 µg/mL (≈ 5.54 µM); bioavailability [12]: 35.3%; AUC(0-inf) [13]: 8.78 µM·h |
| CCn1c(C(=O)c2cc(C)cc(C#N)c2)c(C(C)C)c(=O)n(COC(=O)OC(C)C)c1=O | – | – | – | – | – | – | AUC(0-inf) [7]: 54 µM·h; bioavailability [8]: 108%; solubility [10]: < 1 µg/mL; bioavailability [12]: 24%; AUC(0-inf) [13]: 4.54 µM·h |
| Cc1cc(C#N)cc(C(=O)c2[nH]c(=O)[nH]c(=O)c2C(C)C)c1 | > 1 | > 1 | > 500 | – | 0.45 | 6.4 | – |
| Cc1cc(C#N)cc(C)c1Oc1nc(Nc2ccc(C#N)cc2)nc(N)c1Br [ETRAVIRINE] | – | – | – | 0.002 | 1.6 | 8.87 | bioavailability [14]: 13% |
| CCn1c(C(=O)c2cc(C)cc(C#N)c2)c(C(C)C)c(=O)[nH]c1=O | 9.6 | 6.4 | 6.1 | 0.166 | 2.25 | 6.5 | bioavailability [15]: 69%; Ratio EC50 [16]: 2.7; AUC(0-inf) [7]: 13.1 µM·h; bioavailability [8]: 35.8%; Ratio EC50 [17]: 2.7; solubility [10]: 11 µg/mL (≈ 33.8 µM); Ratio EC50 [18]: 2.7; bioavailability [12]: 45.1%; AUC(0-inf) [13]: 13.5 µM·h |
| Cc1cc(C#N)cc(C(=O)c2c(C(C)C)c(=O)[nH]c(=O)n2C)c1 | > 2.7 | > 2.7 | 187 | 0.141 | – | – | – |
